Assay results reported in article PMC12169104, “Towards the development of supramolecular self-associating amphiphiles as antibiofilm agents against Pseudomonas aeruginosa and Candida albicans biofilms” (Journal of Materials Chemistry. B, 2025).
Where “and” joins values, the source holds several entries; their conditions need not be identical. Identical values can stand only once. Marks after values point to notes of the source that are not given here.

Legend:
[1] = Dynamic light scattering (DLS) of SSA aggregates; assay type: physicochemical; conditions: for Peak 2 (nm) / Peak 1 (nm) / Peak 3 (nm): DLS average intensity particle size distribution; for Peak 2 (nm) / PDI / Peak 1 (nm) / Peak 3 (nm): EtOH:H2O 1:19; for dH (nm): DLS intensity distribution peak maxima, H2O:EtOH 19:1, 2.78 mM, 298 K, after annealing
Description: DLS studies: All vials used for preparing the samples were clean and dry. All solvents used were filtered to remove any particulates that may interfere with the results obtained. Samples of differing concentrations were obtained through serial dilution of a concentrated solution. All samples underwent an annealing process, in which they were heated to 313 K before being allowed to cool to 298 K to allow each sample to reach a thermodynamic minimum. […]

[2] = 1H NMR DOSY, hydrodynamic diameter of SSA anion; assay type: physicochemical; conditions: DMSO-d6/0.5 % H2O, 298 K
Description: The self-associative properties of SSAs 1–5, and co-formulations a–j, were studied using previously published methodologies, the results of which are summarised in Table 1.[44,45] Initially, we quantified the strength of homogeneous SSA anion self-association events, to confirm the effect of the squaramide – (thio)urea substitution. […] Complimentary ^1H NMR DOSY experiments conducted in DMSO-d6 0.5% H2O solutions at 298 K confirmed the SSA anion and cation components to diffuse at different rates, providing supporting evidence towards the lack of any strong ion pairing interactions between the SSA anionic and cationic components under these experimental conditions. […] The formation of SSA anionic dimers has also been shown in the solid state through single crystal X-ray diffraction experiments.[42,43,46] […] Here the SSA anion dimer is stabilised through the formation of four intermolecular squaramide-anion hydrogen bonds. Proton NMR spectroscopy dilution study data, obtained from a DMSO-d6 0.5% H2O solution, were then fitted to both the EK (the equal K single component linear self-associative or dimerization model) and CoEK (the cooperative equal K single component linear self-associative or dimerization model) self-association models using Bindfit v0.5.[47,48] […] The dimerization constants calculated confirm that substitution of the sulfonate ion (1 and 3) for the carboxylate ion (2) increase Kdim by approximately 50-fold. However, substituting the thiourea (2) for the squaramide (5) functionality increases the Kdim by a further 70-fold. Therefore, confirming our initial hypothesis, that incorporating the squaramide residue within the SSA anion structure would increase the strength of SSA anion self-association events.

[3] = Membrane fluidity fluorescence polarization (DPH) assay; conditions: SSA 1.5 mM, HEPES buffer pH 7.4, 298 K, n = 3, error = SD
Description: Next, we sought to understand the effects of 1, 2, 4 and 5 and a, c, d, f, g, j on synthetic vesicle phospholipid membrane fluidity using a fluorescence polarization (FP) assay.[52] Here, the fluorescent reporter dye 1,6-diphenyl-1,3,5-hexatriene (DPH) is incorporated into the vesicles phospholipid bilayer. As membrane fluidity is increased, the DPH reporter dye moves more freely within the phospholipid bilayer environment, resulting in a decreased FP value. However, should the membrane become more rigid, the movement of the dye is decreased and the FP value increases. As 3 is intrinsically fluorescent and overlaps with the fluorescence excitation/emission properties of the DPH, this SSA and co-formulations incorporating this compound were not included. […]
Preparation of vesicles: All lipids were purchased as powder stocks from Avanti Polar Lipids. Lipid vesicles were prepared according to standard procedures. Each phospholipid (~ 20 mg) was dissolved in chloroform: methanol 3:1 (~ 10 mL) and the solvent was removed under reduced pressure. The thin film of dried lipid was further dried in vacuo overnight. Lipid films were resuspended in the desired buffer and subjected to 10 freeze-thaw cycles in liquid nitrogen and extruded 19 times through a 200 nm polycarbonate membrane. […]
Preparation of DPH fluorescent labelled vesicles: Lipid films were resuspended in buffer (150 mM KCl, 10 mM HEPES, pH 7.4, 2 mM EGTA) and subjected to 10 freeze-thaw cycles in liquid nitrogen and extruded 20 times through a 200 nm polycarbonate membrane. For fluorescent labelling, the desired vesicles were pre-incubated with DPH (10 µM) at 60 °C for 1 hour.
Membrane fluidity assay: Black bottom 96-well plates were prepared by serially diluting desired SSA in a EtOH: H2O 1:19 solution across the plate, the appropriate DPH labelled vesicles (100 µL, 60 µM) were added to each well to give a total well volume of 200 µL. FP measurements were taken at 25 °C using a 355 nm filter for excitation and a […] for emission. The DPH labelled vesicles were set to a FP value of 100 mP. Data were acquired in endpoint mode. All experiments were repeated in triplicate to ensure experimental reproducibility.

[4] = Quantitative 1H NMR spectroscopy (higher order self-association); assay type: physicochemical; conditions: D2O:EtOH 19:1, 2.78 mM, 298 K; proportion of compound to become NMR silent
[5] = Tensiometry: critical aggregation concentration and surface tension; assay type: physicochemical; conditions: H2O:EtOH 19:1, approx. 291 K; for CAC (mM) / CAC: surface tension measurements, bounds represent the limit of solubility; for Surface tension at limit of solubility: footnote c, CAC not reached
[6] = polydispersity index of DLS dH, 2.78 mM
[7] = PE:PG 1:1 vesicles with DPH (10 μM)
[8] = PE:PG 3:1 vesicles with DPH (10 μM)

Compound	Peak 2 (nm) ([1]; 0.28 mM)	Peak 2 (nm) ([1]; 2.78 mM)	dH (nm) [1]	PDI ([1]; DLS, 0.28 mM)	PDI [1, 6]	dH (nm) of SSA anion, 1H NMR DOSY [2]	Average FP values [3, 7]	Average FP values [3, 8]	Average FP values ([3]; PG vesicles with DPH (10 μM))	Quantitative 1H NMR (%) Anion [4]	Quantitative 1H NMR (%) Cation [4]	CAC (mM) [5]	Surface tension at limit of solubility [5]	Peak 1 (nm) ([1]; 0.28 mM)	Peak 3 (nm) ([1]; 0.28 mM)	Peak 1 (nm) ([1]; 2.78 mM)	CAC [5]
O=C(O)CNC(=S)Nc1ccc(C(F)(F)F)cc1 [SSA 2]	139.08 nm	142.73 nm	142 nm and 143 nm	0.0160	0.0350	1.42 nm	−1 ± 1	−40 ± 0	11 ± 8	43%	39%	>10.0 ^b mM	41 ^c mN m^−1				
Cc1ccc2nc(-c3ccc(NC(=O)NCS(=O)(=O)O)cc3)sc2c1 [SSA 3]	56.01 nm	672.27 nm	672.27 nm and 672 nm	0.0863	0.0658	1.64 nm				37%	37%			0.43 nm	462.06 nm	51.65 nm	
O=C(O)CNc1c(Nc2ccc(C(F)(F)F)cc2)c(=O)c1=O [SSA 5]	125.90 nm	160.53 nm	174 nm	0.0547	0.0614	1.61 nm	146 ± 4	106 ± 7	152 ± 6	33%	37%	>2.8 ^b mM	43 ^c mN m^−1		747.97 nm		< 2.78 mM
O=c1c(NCCCS(=O)(=O)O)c(Nc2ccc(C(F)(F)F)cc2)c1=O [SSA 4]		162.46 nm	162.46 nm and 162 nm	0.0452	0.0388	1.65 nm	151 ± 5	73 ± 14	150 ± 8	44%	39%	>7.5 ^b mM	42 ^c mN m^−1				< 7.5 mM
O=S(=O)(O)CCCNC(=S)Nc1ccc(C(F)(F)F)cc1 [SSA 1]	100.61 nm	184.36 nm	184.36 nm and 184 nm	0.0602	0.0315	1.50 nm	50 ± 1	−9 ± 3	29 ± 1	33%	31%			0.23 nm	747.99 nm		
